# Laboratory results as given in patent US20150105252A1, “SUBSTITUTED PYRAZOLES AS HERBICIDES” (E I DU PONT DE NEMOURS AND COMPANY, priority 2013, published 2015).
# Columns and labels:
# morningglory [1] = assay: Test C preemergence; type: in vivo, Ipomoea coccinea; details: for Morningglory plant response rating / Plant response rating, Morningglory: preemergence; for Plant response rating, Morningglory: scale 0 to 100, 0 = no effect, 100 = complete control
# In short: (§1)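 Seeds were sown in a loam soil–sand blend and sprayed preemergence with compounds formulated in a non-phytotoxic solvent mixture containing surfactant. Postemergence plants, grown in peat/vermiculite medium to 2–18 cm (1- to 4-leaf stage), received the same formulation. After 13 to 15 days in a greenhouse, injury was rated visually against controls (0 = no effect, 100 = complete control).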
# velvetleaf = assay: Test A postemergence; type: in vivo, Abutilon theophrasti
# In short: (§2)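 Visual injury rating, 0–100 (0 no effect, 100 complete control), vs untreated controls ~10 days after treatment in greenhouse. Pre: directed soil spray on seeded loam/sand. Post: 2–10 cm plants, 1–2 leaf stage. Formulation: non-phytotoxic solvent mix + surfactant.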
# morningglory [2] = assay: Test A postemergence; type: in vivo, Ipomoea spp.
# In short: as §2
# ryegrass, Italian = assay: Test C preemergence; type: in vivo, Lolium multiflorum; details: for Ryegrass, Italian plant response rating / Plant response rating, Ryegrass, Italian: preemergence; for Plant response rating, Ryegrass, Italian: scale 0 to 100, 0 = no effect, 100 = complete control
# In short: as §1
# pigweed [3] = assay: Test A preemergence; type: in vivo, Amaranthus retroflexus; details: preemergence
# In short: as §2
# crabgrass, large = assay: Test C preemergence; type: in vivo, Digitaria sanguinalis; details: for Crabgrass, Large plant response rating / Plant response rating, Crabgrass, Large: preemergence; for Plant response rating, Crabgrass, Large: scale 0 to 100, 0 = no effect, 100 = complete control
# In short: as §1
# pigweed [4] = assay: Test C preemergence; type: in vivo, Amaranthus retroflexus; details: for Pigweed plant response rating / Plant response rating, Pigweed: preemergence; for Plant response rating, Pigweed: scale 0 to 100, 0 = no effect, 100 = complete control
# In short: as §1
# sedge, umbrella = assay: Test B flood; type: in vivo, Cyperus difformis; details: 250 g ai/ha, visual rating on 0 to 100 scale (0 no effect, 100 complete control), 13 to 15 days
# In short: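 Paddy-water application: seedlings at 2-leaf stage, flood depth 3 cm maintained for the test duration. Evaluation after 13–15 days in the greenhouse by eye relative to controls; 0–100 scale.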
# soybean = assay: Test C preemergence; type: in vivo, Glycine max; details: for Soybean plant response rating / Plant response rating, Soybean: preemergence; for Plant response rating, Soybean: scale 0 to 100, 0 = no effect, 100 = complete control
# In short: as §1
# morningglory [5] = assay: Test A preemergence; type: in vivo, Ipomoea spp.; details: preemergence
# In short: as §2
# nutsedge, yellow = assay: Test C preemergence; type: in vivo, Cyperus esculentus; details: for Nutsedge, Yellow plant response rating / Plant response rating, Nutsedge, Yellow: preemergence; for Plant response rating, Nutsedge, Yellow: scale 0 to 100, 0 = no effect, 100 = complete control
# In short: as §1
# foxtail, giant = assay: Test A postemergence; type: in vivo, Setaria faberii
# In short: as §2
# corn = assay: Test A postemergence; type: in vivo, Zea mays
# In short: as §2
# galium = assay: Test C preemergence; type: in vivo, Galium aparine; details: for Galium plant response rating / Plant response rating, Galium: preemergence; for Plant response rating, Galium: scale 0 to 100, 0 = no effect, 100 = complete control
# In short: as §1
# [6] = 31 g ai/ha, visual rating, scale 0 to 100 (0 no effect, 100 complete control), 13 to 15 days
# [7] = 125 g ai/ha, scale 0 to 100, 0 is no effect, 100 is complete control
# [8] = Postemergence, 500 g ai/ha, visual rating after approx. 10 days, 0 to 100 scale (0 no effect, 100 complete control)
# [9] = postemergence, 125 g ai/ha, about 10 days, visual rating on 0 to 100 scale (0 no effect, 100 complete control)
# [10] = 125 g ai/ha, visual injury, 0 to 100 scale, approx. 10 days
# [11] = 500 g ai/ha, visual injury after approx. 10 days, 0 to 100 scale (0 no effect, 100 complete control)
# [12] = 62 g ai/ha, scale 0 to 100 (0 no effect, 100 complete control), 13 to 15 days
# [13] = 250 g ai/ha, scale 0 to 100, 0 is no effect, 100 is complete control
# [14] = Postemergence, 125 g ai/ha, 0 to 100 scale, 0 no effect, 100 complete control
# [15] = Postemergence, 500 g ai/ha, 0 to 100 scale (0 no effect, 100 complete control)
# [16] = 125 g ai/ha, visual injury approx. 10 days after treatment
structure (smiles),measurement,setting,value
CCc1cc(C(=O)NC2CC2)nn1Cc1ccnc(OC(F)F)c1 [Compound 98],"Plant response rating (scale of 0 to 100), Morningglory","morningglory [1]; Preemergence, 250 g ai/ha",100
same,Morningglory plant response rating,morningglory [1]; [6],45
same,"Plant response rating, Morningglory","morningglory [1]; 62 g ai/ha, 13 to 15 days",95
same,Morningglory plant response rating,morningglory [1]; [7],100
same,Velvetleaf plant response rating,velvetleaf; [8],100
same,Velvetleaf plant response rating,velvetleaf; [9],70
same,Morningglory plant response rating,morningglory [2]; [8],90
same,Morningglory plant response rating,morningglory [2]; [9],90
same,"Plant response rating (scale of 0 to 100), Ryegrass, Italian","ryegrass, Italian; Preemergence, 250 g ai/ha",100
same,"Ryegrass, Italian plant response rating","ryegrass, Italian; [6]",30
same,"Plant response rating, Ryegrass, Italian","ryegrass, Italian; 62 g ai/ha, 13 to 15 days",80
same,"Ryegrass, Italian plant response rating","ryegrass, Italian; [7]",95
same,Pigweed plant response rating,pigweed [3]; [10],100
same,Pigweed plant response rating,pigweed [3]; [11],100
same,"Plant response rating (scale of 0 to 100), Crabgrass, Large","crabgrass, large; Preemergence, 250 g ai/ha",100
same,"Crabgrass, Large plant response rating","crabgrass, large; [6]",98
same,"Plant response rating, Crabgrass, Large","crabgrass, large; 62 g ai/ha, 13 to 15 days",100
same,"Crabgrass, Large plant response rating","crabgrass, large; [7]",100
same,"Plant response rating (scale of 0 to 100), Pigweed","pigweed [4]; Preemergence, 250 g ai/ha",100
same,Pigweed plant response rating,pigweed [4]; [6],100
same,"Plant response rating, Pigweed","pigweed [4]; 62 g ai/ha, 13 to 15 days",100
same,Pigweed plant response rating,pigweed [4]; [7],100
same,"Plant response rating, Sedge, Umbrella","sedge, umbrella",80
same,"Plant response rating (scale of 0 to 100), Soybean","soybean; Preemergence, 250 g ai/ha",98
same,Soybean plant response rating,soybean; [6],30
same,"Plant response rating, Soybean","soybean; 62 g ai/ha, 13 to 15 days",70
same,Soybean plant response rating,soybean; [7],98
same,Morningglory plant response rating,morningglory [5]; [10],100
same,Morningglory plant response rating,morningglory [5]; [11],100
same,"Plant response rating (scale of 0 to 100), Nutsedge, Yellow","nutsedge, yellow; Preemergence, 250 g ai/ha",95
same,"Nutsedge, Yellow plant response rating","nutsedge, yellow; [6]",30
same,"Plant response rating, Nutsedge, Yellow","nutsedge, yellow; 62 g ai/ha, 13 to 15 days",75
same,"Foxtail, Giant plant response rating","foxtail, giant; [8]",90
same,"Foxtail, Giant plant response rating","foxtail, giant; [9]",90
same,Corn plant response rating,corn; [8],90
same,Corn plant response rating,corn; [9],80
same,"Plant response rating (scale of 0 to 100), Galium","galium; Preemergence, 250 g ai/ha",100
same,Galium plant response rating,galium; [6],100
same,"Plant response rating, Galium","galium; 62 g ai/ha, 13 to 15 days",100
same,Galium plant response rating,galium; [7],100
CCc1cc(C(=O)NCC2CC2)nn1Cc1ccnc(C(F)(F)F)c1 [Compound 199],Morningglory plant response rating,morningglory [1]; [6],60
same,Morningglory plant response rating,morningglory [1]; [12],100
same,"Plant response rating, Morningglory","morningglory [1]; 125 g ai/ha, 13 to 15 days",98
same,Morningglory plant response rating,morningglory [1]; [13],100
same,Velvetleaf plant response rating,velvetleaf; [14],80
same,Velvetleaf plant response rating,velvetleaf; [15],90
same,Morningglory plant response rating,morningglory [2]; [14],90
same,Morningglory plant response rating,morningglory [2]; [15],100
same,"Ryegrass, Italian plant response rating","ryegrass, Italian; [6]",40
same,"Ryegrass, Italian plant response rating","ryegrass, Italian; [12]",85
same,"Plant response rating, Ryegrass, Italian","ryegrass, Italian; 125 g ai/ha, 13 to 15 days",90
same,"Ryegrass, Italian plant response rating","ryegrass, Italian; [13]",90
same,Pigweed plant response rating (0 to 100 scale),pigweed [3]; [16],100
same,Pigweed plant response rating,pigweed [3]; [11],100
same,"Crabgrass, Large plant response rating","crabgrass, large; [6]",98
same,"Crabgrass, Large plant response rating","crabgrass, large; [12]",100
same,"Plant response rating, Crabgrass, Large","crabgrass, large; 125 g ai/ha, 13 to 15 days",100
same,"Crabgrass, Large plant response rating","crabgrass, large; [13]",100
same,Pigweed plant response rating,pigweed [4]; [6],100
same,Pigweed plant response rating,pigweed [4]; [12],100
same,"Plant response rating, Pigweed","pigweed [4]; 125 g ai/ha, 13 to 15 days",100
same,Pigweed plant response rating,pigweed [4]; [13],100
same,"Plant response rating, Sedge, Umbrella","sedge, umbrella",90
same,Soybean plant response rating,soybean; [6],30
same,Soybean plant response rating,soybean; [12],55
same,"Plant response rating, Soybean","soybean; 125 g ai/ha, 13 to 15 days",90
same,Soybean plant response rating,soybean; [13],95
same,Morningglory plant response rating (0 to 100 scale),morningglory [5]; [16],90
same,Morningglory plant response rating,morningglory [5]; [11],100
same,"Nutsedge, Yellow plant response rating","nutsedge, yellow; [6]",30
same,"Nutsedge, Yellow plant response rating","nutsedge, yellow; [12]",45
same,"Plant response rating, Nutsedge, Yellow","nutsedge, yellow; 125 g ai/ha, 13 to 15 days",80
same,"Nutsedge, Yellow plant response rating","nutsedge, yellow; [13]",85
same,"Foxtail, Giant plant response rating","foxtail, giant; [15]",90
same,"Foxtail, Giant plant response rating","foxtail, giant; [9]",90
same,Corn plant response rating,corn; [15],90
same,Corn plant response rating,corn; [9],50
same,Galium plant response rating,galium; [6],40
same,Galium plant response rating,galium; [12],100
same,"Plant response rating, Galium","galium; 125 g ai/ha, 13 to 15 days",100
same,Galium plant response rating,galium; [13],100
